In patent US8415469B2, “Compounds and methods for kinase modulation, and indications therefor” (Plexxikon Inc., priority 2005, dated 2013):

How the values were obtained:
Type in all cases: biochemical
B-Raf = target: T1, B-Raf (Homo sapiens, UniProt P15056); experiment: AlphaScreen kinase assay, B-Raf; settings: read-out: IC50, activity toward kinase B-Raf
T1 construct: purchased Upstate Biotechnology

B-Raf V600E = target: T2, B-Raf V600E (Homo sapiens, UniProt P15056, V600E); experiment: AlphaScreen kinase assay, B-Raf V600E; settings: read-out: IC50, activity toward kinase B-Raf V600E
T2 construct: P4254. pFastBacBD-CDC37 BRAF D437-K722-X, V600E; His6 with pFastBac HT leader (TEV site) (N); made in house; host or cells: Sf9 (baculovirus; chaperone CDC37 co-expressed)

c-Raf-1 = target: T3, c-Raf-1 (Homo sapiens, UniProt P04049); experiment: AlphaScreen kinase assay, c-Raf-1; settings: read-out: IC50, activity toward kinase c-Raf-1
T3 construct: purchased Upstate Biotechnology

FGFR1 = target: T4, FGFR1 (Homo sapiens, UniProt P11362, C488A/C584S); experiment: AlphaScreen kinase assay, FGFR1; settings: read-out: IC50, activity toward kinase FGFR
T4 construct: P1351.pET N6 BI-PTP FGFR A458-E765-X C488A, C584S; made in house; host or cells: E. coli (PTP1B co-expressed)

Flt1 = target: T5, Flt1 (Homo sapiens, UniProt P17948); experiment: AlphaScreen kinase assay, Flt1; settings: read-out: IC50, activity toward kinase Flt1
T5 construct: P1826.pETN6 BI-PTP FLT1 M799-D1165-X WT; His6 (N); made in house; host or cells: E. coli (PTP1B co-expressed)
T5 sequence (P17948 with tags, fused parts or gaps): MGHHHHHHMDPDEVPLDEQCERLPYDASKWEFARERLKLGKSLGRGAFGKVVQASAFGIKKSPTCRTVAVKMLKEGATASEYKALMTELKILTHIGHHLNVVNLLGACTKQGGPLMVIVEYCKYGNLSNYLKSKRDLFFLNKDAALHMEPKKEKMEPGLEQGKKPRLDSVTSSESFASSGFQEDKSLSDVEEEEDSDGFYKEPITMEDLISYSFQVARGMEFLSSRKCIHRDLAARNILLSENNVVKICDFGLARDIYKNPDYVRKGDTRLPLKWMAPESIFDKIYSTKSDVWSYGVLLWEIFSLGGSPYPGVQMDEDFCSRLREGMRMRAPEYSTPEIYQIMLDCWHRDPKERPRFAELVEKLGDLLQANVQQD

Fms = target: T6, Fms (Homo sapiens, UniProt P07333); experiment: AlphaScreen kinase assay, Fms; settings: read-out: IC50, activity toward kinase Fms
T6 construct: purchased Upstate Biotechnology

Jnk1 = target: T7, Jnk1 (Homo sapiens, UniProt P45983); experiment: AlphaScreen kinase assay, Jnk1; settings: read-out: IC50, activity toward kinase Jnk1
T7 construct: purchased Upstate Biotechnology

Kit = target: T8, Kit (Homo sapiens, UniProt P10721); experiment: AlphaScreen kinase assay, Kit; settings: read-out: IC50, activity toward kinase Kit
T8 construct: P1332.N6 BI PTP KIT M552-K948-X COD; His6 (N); made in house; host or cells: E. coli (PTP1B co-expressed)
Source text: (§1) AlphaScreen assay was used to screen additional kinases. The assay is similarly dependent on the phosphorylation of a peptide substrate. In this assay, an antibody that recognizes phosphorylated substrate is bound to an acceptor bead. The peptide substrate is attached to biotin, which binds to a donor head that contains streptavidin. Thus phosphorylated substrate is bound by antibody and streptavidin, bringing the donor and acceptor heads into close proximity when kinase is not inhibited. The donor produces singlet oxygen which results in emission from the acceptor when they are in close proximity. Conversely, when kinase is inhibited, the donor and acceptor beads are not associated and the emission from the acceptor is reduced.
(§2) AlphaScreen assays were done using compounds dissolved in DMSO to a concentration of 20 mM. The compounds were diluted accordingly to the desired final concentrations in each sample well, using 1:3 serial dilution for a total of 8 concentration points. Plates were prepared such that each kinase reaction is 20 μl in 1× kinase buffer, 5% DMSO and 10 μM ATP. After incubation of the kinase reaction for 1 hour at room temperature, 5 μl of donor beads in stop buffer (50 mM EDTA in 1× kinase buffer) was added, the sample was mixed and incubated for 20 minutes at room temperature before adding 5 μl of acceptor beads in stop buffer. The samples were incubated for 60 minutes at room temperature and the signal per well was read on AlphaQuest reader.

Src = target: T9, Src (Homo sapiens, UniProt P12931); experiment: AlphaScreen kinase assay, Src; settings: read-out: IC50, activity toward kinase Src
T9 construct: P1144. pET-N6 BI-PTP SRC V86-L536-X; made in house
Source text: as §1, §2

Stk6 = target: T10, Stk6 (Homo sapiens, UniProt O14965); experiment: Z'-Lyte FRET kinase assay (Invitrogen), Stk6; settings: read-out: IC50, activity toward kinase Stk6
T10 construct: purchased Invitrogen (Carlsbad, Calif.), screening service
T10 sequence (O14965 1-403): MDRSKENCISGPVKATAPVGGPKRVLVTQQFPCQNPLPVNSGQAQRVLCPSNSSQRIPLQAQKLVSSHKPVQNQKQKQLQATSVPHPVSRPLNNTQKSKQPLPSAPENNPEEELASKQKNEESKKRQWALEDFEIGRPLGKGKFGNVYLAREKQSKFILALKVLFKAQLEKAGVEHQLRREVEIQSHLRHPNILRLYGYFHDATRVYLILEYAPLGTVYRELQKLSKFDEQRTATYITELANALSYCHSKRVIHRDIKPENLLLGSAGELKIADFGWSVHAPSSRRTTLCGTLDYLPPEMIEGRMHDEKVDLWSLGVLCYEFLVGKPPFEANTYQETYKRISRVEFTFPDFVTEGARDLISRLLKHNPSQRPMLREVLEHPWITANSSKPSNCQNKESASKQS

T4 sequence (P11362 458-765 C488A/C584S): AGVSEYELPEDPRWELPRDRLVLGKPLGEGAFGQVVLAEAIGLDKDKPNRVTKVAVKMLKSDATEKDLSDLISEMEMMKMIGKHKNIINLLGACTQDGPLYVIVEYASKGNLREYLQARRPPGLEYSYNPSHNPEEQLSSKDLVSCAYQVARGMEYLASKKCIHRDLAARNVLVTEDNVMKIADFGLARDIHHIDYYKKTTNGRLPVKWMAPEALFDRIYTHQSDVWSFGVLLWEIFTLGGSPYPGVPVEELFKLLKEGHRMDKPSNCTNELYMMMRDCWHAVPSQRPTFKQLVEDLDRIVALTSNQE
T8 sequence (P10721 with tags, fused parts or gaps): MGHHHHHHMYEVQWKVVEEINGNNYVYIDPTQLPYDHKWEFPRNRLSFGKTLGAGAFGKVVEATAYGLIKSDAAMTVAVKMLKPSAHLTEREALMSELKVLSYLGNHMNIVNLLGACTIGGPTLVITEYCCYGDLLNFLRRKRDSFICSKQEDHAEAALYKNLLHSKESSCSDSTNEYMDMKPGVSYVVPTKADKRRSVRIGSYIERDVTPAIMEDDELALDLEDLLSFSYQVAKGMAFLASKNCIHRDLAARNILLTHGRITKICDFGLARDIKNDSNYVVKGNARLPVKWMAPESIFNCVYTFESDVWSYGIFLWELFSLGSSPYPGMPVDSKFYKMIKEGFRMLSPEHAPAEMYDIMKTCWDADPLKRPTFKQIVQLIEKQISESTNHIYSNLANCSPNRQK
T1 sequence (P15056 whole entry): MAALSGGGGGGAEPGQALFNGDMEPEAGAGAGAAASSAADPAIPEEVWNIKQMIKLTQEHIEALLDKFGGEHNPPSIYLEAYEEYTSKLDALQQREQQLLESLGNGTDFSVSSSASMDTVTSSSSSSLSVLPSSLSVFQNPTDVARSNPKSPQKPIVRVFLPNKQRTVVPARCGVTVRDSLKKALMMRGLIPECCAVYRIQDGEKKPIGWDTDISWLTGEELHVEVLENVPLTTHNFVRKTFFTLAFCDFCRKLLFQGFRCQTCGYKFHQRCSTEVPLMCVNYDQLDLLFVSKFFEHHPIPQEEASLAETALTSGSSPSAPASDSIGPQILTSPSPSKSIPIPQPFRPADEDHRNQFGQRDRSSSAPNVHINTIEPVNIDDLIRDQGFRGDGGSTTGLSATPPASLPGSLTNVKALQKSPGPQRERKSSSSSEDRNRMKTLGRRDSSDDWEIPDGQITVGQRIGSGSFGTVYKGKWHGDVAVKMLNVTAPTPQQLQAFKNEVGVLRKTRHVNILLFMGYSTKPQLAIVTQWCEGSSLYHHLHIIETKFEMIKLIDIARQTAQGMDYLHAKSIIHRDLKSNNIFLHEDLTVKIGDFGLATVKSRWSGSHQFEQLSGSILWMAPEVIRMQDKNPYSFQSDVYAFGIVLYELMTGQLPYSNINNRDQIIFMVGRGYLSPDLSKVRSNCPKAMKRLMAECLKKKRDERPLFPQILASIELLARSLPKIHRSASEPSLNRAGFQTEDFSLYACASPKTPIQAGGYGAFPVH
T7 sequence (P45983 whole entry): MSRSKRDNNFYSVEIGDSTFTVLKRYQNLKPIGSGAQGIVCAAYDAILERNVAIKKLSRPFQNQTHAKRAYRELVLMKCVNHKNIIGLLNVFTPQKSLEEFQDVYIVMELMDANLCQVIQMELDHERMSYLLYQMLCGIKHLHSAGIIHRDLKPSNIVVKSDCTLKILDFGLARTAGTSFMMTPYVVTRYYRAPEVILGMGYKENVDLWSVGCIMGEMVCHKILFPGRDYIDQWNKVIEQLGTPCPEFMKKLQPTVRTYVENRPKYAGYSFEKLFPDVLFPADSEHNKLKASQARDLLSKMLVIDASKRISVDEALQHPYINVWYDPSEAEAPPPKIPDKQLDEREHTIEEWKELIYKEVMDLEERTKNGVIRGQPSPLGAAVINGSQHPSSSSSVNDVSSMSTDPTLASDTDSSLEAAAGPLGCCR
T2 sequence (P15056 with tags, fused parts or gaps V600E): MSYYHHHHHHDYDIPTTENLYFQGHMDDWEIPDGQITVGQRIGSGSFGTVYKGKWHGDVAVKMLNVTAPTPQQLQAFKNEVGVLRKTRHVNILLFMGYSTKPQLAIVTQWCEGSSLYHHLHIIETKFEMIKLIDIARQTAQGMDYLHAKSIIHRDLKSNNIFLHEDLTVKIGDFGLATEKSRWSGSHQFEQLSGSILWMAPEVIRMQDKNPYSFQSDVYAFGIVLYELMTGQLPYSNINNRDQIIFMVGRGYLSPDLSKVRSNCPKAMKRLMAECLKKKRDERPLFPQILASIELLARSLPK
T3 sequence (P04049 whole entry): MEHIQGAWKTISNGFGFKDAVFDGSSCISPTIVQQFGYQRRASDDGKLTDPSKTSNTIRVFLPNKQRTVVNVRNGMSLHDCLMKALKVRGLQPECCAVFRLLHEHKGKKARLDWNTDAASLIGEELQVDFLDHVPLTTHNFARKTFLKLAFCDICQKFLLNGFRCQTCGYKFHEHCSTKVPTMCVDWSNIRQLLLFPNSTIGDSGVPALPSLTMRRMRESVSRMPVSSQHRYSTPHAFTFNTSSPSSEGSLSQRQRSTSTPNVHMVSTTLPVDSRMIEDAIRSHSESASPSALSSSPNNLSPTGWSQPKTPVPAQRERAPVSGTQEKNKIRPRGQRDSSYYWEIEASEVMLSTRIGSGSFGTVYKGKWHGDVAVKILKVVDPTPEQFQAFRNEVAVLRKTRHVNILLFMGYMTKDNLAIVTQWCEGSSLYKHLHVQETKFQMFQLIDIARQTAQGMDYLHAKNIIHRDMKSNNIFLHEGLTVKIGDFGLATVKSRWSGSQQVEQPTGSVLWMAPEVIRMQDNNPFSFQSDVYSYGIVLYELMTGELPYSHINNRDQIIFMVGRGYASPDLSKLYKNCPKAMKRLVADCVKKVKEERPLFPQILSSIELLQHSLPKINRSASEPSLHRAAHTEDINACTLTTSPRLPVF
T6 sequence (P07333 20-972): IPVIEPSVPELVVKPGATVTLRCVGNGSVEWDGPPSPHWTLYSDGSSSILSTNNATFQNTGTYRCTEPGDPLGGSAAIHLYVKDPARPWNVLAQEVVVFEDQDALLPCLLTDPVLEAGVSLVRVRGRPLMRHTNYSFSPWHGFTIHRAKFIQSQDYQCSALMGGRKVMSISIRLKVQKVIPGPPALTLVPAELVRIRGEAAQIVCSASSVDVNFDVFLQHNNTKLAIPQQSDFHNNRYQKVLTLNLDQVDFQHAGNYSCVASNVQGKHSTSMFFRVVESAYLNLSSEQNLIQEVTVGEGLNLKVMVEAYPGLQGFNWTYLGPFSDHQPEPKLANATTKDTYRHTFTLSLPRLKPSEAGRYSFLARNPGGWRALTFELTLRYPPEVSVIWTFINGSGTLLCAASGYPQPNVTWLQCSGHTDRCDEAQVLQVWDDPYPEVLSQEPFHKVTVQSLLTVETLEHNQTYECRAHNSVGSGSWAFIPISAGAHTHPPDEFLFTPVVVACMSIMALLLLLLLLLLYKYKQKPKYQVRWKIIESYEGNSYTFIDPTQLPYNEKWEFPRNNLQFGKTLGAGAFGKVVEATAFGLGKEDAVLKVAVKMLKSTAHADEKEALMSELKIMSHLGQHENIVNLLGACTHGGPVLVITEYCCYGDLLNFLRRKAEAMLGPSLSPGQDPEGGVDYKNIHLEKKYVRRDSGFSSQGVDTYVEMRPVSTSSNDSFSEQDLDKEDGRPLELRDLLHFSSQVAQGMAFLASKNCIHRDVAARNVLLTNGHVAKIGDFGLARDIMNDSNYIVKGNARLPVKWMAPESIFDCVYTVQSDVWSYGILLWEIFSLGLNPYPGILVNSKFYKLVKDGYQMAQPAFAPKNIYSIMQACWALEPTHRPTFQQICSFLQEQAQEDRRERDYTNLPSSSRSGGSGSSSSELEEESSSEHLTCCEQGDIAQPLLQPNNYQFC
T9 sequence (P12931 with tags, fused parts or gaps): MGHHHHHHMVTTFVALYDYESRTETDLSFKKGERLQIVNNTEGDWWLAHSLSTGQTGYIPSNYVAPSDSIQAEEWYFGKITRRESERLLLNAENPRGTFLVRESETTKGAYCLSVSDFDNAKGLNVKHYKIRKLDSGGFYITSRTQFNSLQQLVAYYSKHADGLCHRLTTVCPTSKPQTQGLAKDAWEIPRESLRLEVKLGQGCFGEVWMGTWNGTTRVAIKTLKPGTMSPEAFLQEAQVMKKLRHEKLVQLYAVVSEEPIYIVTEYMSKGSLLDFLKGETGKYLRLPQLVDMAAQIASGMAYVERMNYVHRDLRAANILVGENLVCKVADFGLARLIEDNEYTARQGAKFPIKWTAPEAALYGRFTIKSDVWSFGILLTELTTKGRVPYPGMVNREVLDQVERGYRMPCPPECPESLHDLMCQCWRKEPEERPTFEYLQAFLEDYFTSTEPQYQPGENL

SMILES | IC50 (B-Raf V600E) [µM] | IC50 (FGFR1) [µM] | IC50 (Stk6) [µM] | also measured
CCCS(=O)(=O)Nc1cccc(C(=O)c2c[nH]c3ncc(-c4cccnc4)cc23)c1F [Compound P-1251, Propane-1-sulfonic acid [2-fluoro-3-(5-pyridin-3-yl-1H-pyrrolo[2,3-b]pyridine-3-carbonyl)-phenyl]-amide] | ≤ 10 | ≤ 10 |  | IC50 (B-Raf): ≤ 10 µM; IC50 (c-Raf-1): ≤ 10 µM; IC50 (Flt1): ≤ 10 µM; IC50 (Fms): ≤ 10 µM; IC50 (Jnk1): ≤ 10 µM; IC50 (Kit): ≤ 10 µM; IC50 (Src): ≤ 10 µM
CC(C)CNc1ccc(C(O)c2c[nH]c3ncccc23)cn1 (stereo not drawn) [Compound P-0185] | ≤ 10 |  | ≤ 10 | 
CCCS(=O)(=O)Nc1ccc(F)c(C(=O)c2c[nH]c3ncc(F)cc23)c1F [Compound P-0907, Propane-1-sulfonic acid [2,4-difluoro-3-(5-fluoro-1H-pyrrolo[2,3-b]pyridine-3-carbonyl)-phenyl]-amide] | ≤ 10 | ≤ 10 |  | IC50 (B-Raf): ≤ 10 µM; IC50 (c-Raf-1): ≤ 10 µM; IC50 (Kit): ≤ 10 µM; IC50 (Src): ≤ 10 µM
N#Cc1ccnc2[nH]cc(Sc3cccs3)c12 [Compound P-0370] |  |  | ≤ 10 | 
O=C(c1c[nH]c2ncccc12)C1CCCCC1 [Compound P-0407] |  |  | ≤ 10 | 
Cc1ccc(S(=O)(=O)Nc2ccc(Cc3c[nH]c4ncccc34)cc2)cc1 [Compound P-0426] |  | ≤ 10 | ≤ 10 | 
COc1cccc(C(=O)c2c[nH]c3ncc(-c4ccccc4)cc23)c1F [Compound P-1338, (2-Fluoro-3-methoxy-phenyl)-(5-phenyl-1H-pyrrolo[2,3-b]pyridin-3-yl)-methanone] |  | ≤ 10 |  | IC50 (B-Raf): ≤ 10 µM; IC50 (c-Raf-1): ≤ 10 µM; IC50 (Fms): ≤ 10 µM; IC50 (Jnk1): ≤ 10 µM; IC50 (Kit): ≤ 10 µM; IC50 (Src): ≤ 10 µM
Clc1ccnc2[nH]cc(Sc3cccs3)c12 [Compound P-0489] |  | ≤ 10 | ≤ 10 | 
COc1cccc(NC(=S)N2CCC(C(=O)c3c[nH]c4ncccc34)CC2)c1 [Compound P-0208] | ≤ 10 |  | ≤ 10 | 
CCCS(=O)(=O)Nc1ccc(F)c(C(=O)c2c[nH]c3ncc(OCCN(CC)CC)cc23)c1F [Compound P-1254, Propane-1-sulfonic acid {3-[5-(2-diethylamino-ethoxy)-1H-pyrrolo[2,3-b]pyridine-3-carbonyl]-2,4-difluoro-phenyl}-amide] | ≤ 10 | ≤ 10 |  | IC50 (B-Raf): ≤ 10 µM; IC50 (c-Raf-1): ≤ 10 µM; IC50 (Kit): ≤ 10 µM; IC50 (Src): ≤ 10 µM
COc1ccccc1Cc1c[nH]c2ncccc12 [Compound P-0406] |  |  | ≤ 10 | 
Cn1nc(C(C)(C)C)cc1C(=O)c1c[nH]c2nccc(-c3cccc(/C=C/C(=O)O)c3)c12 [Compound P-0546] |  |  | ≤ 10 | 
CN(C)S(=O)(=O)Nc1ccc(F)c(C(=O)c2c[nH]c3ncc(Cl)cc23)c1F [Compound P-1258, Dimethylamine-1-sulfonic acid [3-(5-chloro-1H-pyrrolo[2,3-b]pyridine-3-carbonyl)-2,4-difluorophenyl]-amide] | ≤ 10 | ≤ 10 |  | IC50 (B-Raf): ≤ 10 µM; IC50 (c-Raf-1): ≤ 10 µM; IC50 (Src): ≤ 10 µM
Brc1c[nH]c2ncccc12 [Compound P-0201] |  |  | ≤ 10 | 
COc1cccc(-c2ccnc3[nH]cc(Sc4cccs4)c23)c1 [Compound P-0160] | ≤ 10 |  | ≤ 10 | 
CN(c1ccccc1)c1ccnc2[nH]ccc12 [Compound P-0118] | ≤ 10 |  | ≤ 10 | 
CCCS(=O)(=O)Nc1ccc(F)c(C(=O)c2c[nH]c3ncc(-c4cccc(N(C)C)c4)cc23)c1F [Compound P-0876, Propane-1-sulfonic acid {3-[5-(3-dimethylamino-phenyl)-1H-pyrrolo[2,3-b]pyridine-3-carbonyl]-2,4-difluoro-phenyl}-amide] | ≤ 10 | ≤ 10 |  | IC50 (B-Raf): ≤ 10 µM; IC50 (c-Raf-1): ≤ 10 µM; IC50 (Fms): ≤ 10 µM; IC50 (Jnk1): ≤ 10 µM; IC50 (Kit): ≤ 10 µM; IC50 (Src): ≤ 10 µM

SMILES | IC50 (B-Raf V600E) [µM] | IC50 (FGFR1) [µM] | IC50 (Stk6) [µM] | also measured
Cc1cccc(N(C)c2ccnc3[nH]ccc23)c1 [Compound P-0155] |  |  | ≤ 10 | 
O=C(c1cccc(F)c1)c1ccc(-c2cnc3[nH]ccc3c2)s1 [Compound P-0235] |  |  | ≤ 10 | IC50 (Kit): ≤ 10 µM
CCCS(=O)(=O)Nc1ccc(F)c(C(=O)c2c[nH]c3ncc(-c4ccc(OC)cc4)cc23)c1F [Compound P-0877, Propane-1-sulfonic acid {2,4-difluoro-3-[5-(4-methoxy-phenyl)-1H-pyrrolo[2,3-b]pyridine-3-carbonyl]-phenyl}-amide] | ≤ 10 | ≤ 10 |  | IC50 (B-Raf): ≤ 10 µM; IC50 (c-Raf-1): ≤ 10 µM; IC50 (Kit): ≤ 10 µM; IC50 (Src): ≤ 10 µM
Cc1ccsc1Cc1c[nH]c2ncccc12 [Compound P-0191] | ≤ 10 |  | ≤ 10 | 
c1coc(-c2ccnc3[nH]ccc23)c1 [Compound P-0445] |  |  | ≤ 10 | 
FC(F)(F)c1cccc(-c2ccnc3[nH]cc(Sc4ccccn4)c23)c1 [Compound P-0290] |  |  | ≤ 10 | 
CCCC(=O)Nc1ccc(F)c(C(O)c2c[nH]c3ncc(-c4cccnc4)cc23)c1F (stereo not drawn) [Compound P-1366] | ≤ 10 | ≤ 10 |  | IC50 (Flt1): ≤ 10 µM; IC50 (Fms): ≤ 10 µM; IC50 (Jnk1): ≤ 10 µM; IC50 (Kit): ≤ 10 µM; IC50 (Src): ≤ 10 µM
c1cc2cc(-c3ccoc3)cnc2[nH]1 [Compound P-0372] |  |  | ≤ 10 | 
O=C(c1ccc(Nc2cccc(OCc3ccccc3)c2)nc1)c1c[nH]c2ncccc12 [Compound P-0355] | ≤ 10 |  | ≤ 10 | 
c1ccc(Nc2c[nH]c3ncccc23)cc1 [Compound P-0221, N-phenyl-1H-pyrrolo[2,3-b]pyridin-3-amine] |  |  | ≤ 10 | 
c1csc(-c2c[nH]c3ncccc23)c1 [Compound P-0253] |  |  | ≤ 10 | IC50 (Kit): ≤ 10 µM
CCCCS(=O)(=O)Nc1ccc(F)c(C(=O)c2c[nH]c3ncc(Cl)cc23)c1F [Compound P-1265, Butane-1-sulfonic acid [3-(5-chloro-1H-pyrrolo[2,3-b]pyridine-3-carbonyl)-2,4-difluoro-phenyl]-amide] | ≤ 10 | ≤ 10 |  | IC50 (B-Raf): ≤ 10 µM; IC50 (c-Raf-1): ≤ 10 µM; IC50 (Fms): ≤ 10 µM; IC50 (Src): ≤ 10 µM
COc1cccc(-c2cnc3[nH]cc(Sc4cccs4)c3c2)c1 [Compound P-0417] |  |  | ≤ 10 | 
O=C1c2ccccc2C(=O)N1Cc1ccc(-c2cnc3[nH]ccc3c2)cc1 [Compound P-0281] |  |  | ≤ 10 | 
Cc1ccccc1-c1ccnc2[nH]cc(Sc3cccs3)c12 [Compound P-0441] | ≤ 10 |  | ≤ 10 | 
O=C(c1ccc(NCC2CCCCC2)nc1)c1c[nH]c2ncccc12 [Compound P-0471] |  |  | ≤ 10 | 
CC(C)CNc1ccc(C(=O)c2c[nH]c3ncccc23)cn1 [Compound P-0251] |  |  | ≤ 10 | 
